Molecules are shown by their SMILES. Entries after “also recorded” stand apart in the source; their conditions may differ. Like-named read-outs stand apart in the source and are kept apart here.

One data set deals with DENV2. The experiment in a line: Antiviral activity in DENV2-infected Huh7 cells, infectious virus in supernatant by plaque assay. The class given is cell-based, dengue virus. As to the method: FIG 2 Pyrimethamine inhibits dengue virus and NS2B/3 proteinase cleavage like ARDP0006. (A) Chemical structures and (B) ROCS overlay of ARDP0006 and pyrimethamine. […] Infectious virus in cell supernatant was quantified by plaque assay at 24 hpi (left y axis, black or red). Cell viability was measured at the same pyrimethamine doses 24 h posttreatment by WST-1 assay (right y axis, gray). Viral titer and cell viability were normalized to DMSO-treated samples. (D) Splenic titers of DENV2-infected AGB6 mice at 4 days postinfection. Mice were infected with 1 × 10^6 PFU DENV2 and treated twice daily with 20 mg/kg pyrimethamine (n = 9) or a vehicle control (n = 10). Data were analyzed by two-tailed unpaired t test. (E) Cleavage kinetics of NS2B/3/4A in the presence of 100 μM pyrimethamine. NS2B/3/4A protein was expressed in vitro and radiolabeled with [^35S]methionine, followed by treatment with 100 μM pyrimethamine or DMSO. Reaction samples were obtained over a 45-min time course, separated by SDS-PAGE, and the fraction of uncleaved proteinase precursor remaining was determined as described previously ([23]). Data from three replicates were fit using single-phase exponential decay functions, and P value was determined by comparing the rate constant, K, of the models using the extra sum-of-squares F test.
Dengue plaque assays were carried out on BHK-21 cells in 24-well plates. Cells were infected with 10-fold serial dilutions of virus, which were allowed to adsorb for at least 1 h at 37°C, and overlaid with standard cell culture medium plus 0.37% (w/vol) sodium bicarbonate and 0.8% (w/vol) Aquacide II (Millipore Calbiochem). After 7 days of incubation at 37°C, 5% CO2, cells were fixed with 5% (final) formaldehyde and stained with crystal violet for plaque enumeration.
Between 4 × 10^4 and 1 × 10^5 Huh7 cells per well were seeded into 24-well plates 1 day prior to infection. Compounds were diluted to 100× final concentration in DMSO and then further diluted 1:100 into appropriate cell culture. Unless otherwise indicated, tested compounds were present for 1 h pretreatment and readministered for posttreatment following infection. […] Media and drugs were removed from cells for infection at a multiplicity of infection (MOI) of 0.1 or 0.5 in 200 μl cold medium per well. After 1 h at 37°C, virus inoculum was removed by aspiration and replaced with medium plus compound or control. After 24-h total infection, infectious virus was quantified by plaque assay. Antiviral IC50 dose-response curves were fitted in GraphPad Prism 8 using the “[inhibitor] versus response, variable slope” function with a constraint “bottom > 0.” IC90 values are defined as the dose at which “y = (span × 0.1) + bottom.”

Data set [1] has as its system dengue virus. Also noted: method as in PMID 25823617. The following applies: read-out: IC50, inhibition of viral growth in cell culture; cited from earlier work.
For another data set, the target named is NS2B/3 proteinase. Also noted: method as in PMID 30228122. The following applies: read-out: IC50, inhibition of NS2B/3 proteinase cleavage activity in solution; cited from earlier work.
In data set [2] the test system is dengue virus. The experiment in a line: Virucidal activity assay, 60-min incubation of drug with virus, plaque assay on BHK-21 cells. In kind it is cell-based. How it is done:
(§1) (A) Chemical structures and (B) ROCS overlay of ST-148 and niclosamide. […] Compound addition, viral growth, and cytotoxicity assays were performed as described in the legend to Fig. 2C. (D) Virucidal activity of compounds at the concentrations indicated was measured after 60-min incubation of drugs with virus-containing solutions at 37°C. Viral titer was quantified by plaque assay on BHK-21 cells. n = 3. Statistical significance was evaluated by one-way ANOVA with Sidak’s multiple-comparison test and indicated as follows: *, P < 0.05; **, P < 0.01; ****, P < 0.0001; ns, not significant. […] On the left, cells were pretreated for 2 h prior to infection, compounds were removed during a 1-h infection at an MOI of 0.5 PFU/cell and then readministered after removal of viral inoculum. On the right, cells were similarly infected and compounds were first introduced 4 h after starting the infection. […] (F) To test the effect of ST-148 and niclosamide on viral RNA replication, Huh7 cells were infected for 1 h at an MOI of 0.5 PFU/cell. […] Intracellular RNA was collected at the time points indicated and quantified by qRT-PCR. […] N = 4, two-way ANOVA with Dunnett’s multiple-comparison test. […] After 4 h of infection, 10 μM ST-148 or 1 μM niclosamide was added; extracellular virus was collected at 24 hpi and quantified by plaque assay.
Compounds were diluted to 100× in DMSO, then further diluted 1:100 into phosphate-buffered saline (PBS) containing dengue virus to a final volume of 200 μl and mixed. Aliquots were taken for plaque assays immediately after addition of compounds (time [T] = 0 min) or after incubation at 37°C for 60 min (T = 60 min).

The next data set deals with dengue viral RNA. The experiment in a line: Intracellular viral RNA quantification by qRT-PCR in infected Huh7 cells. In kind it is cell-based, dengue virus. As to conditions: added 4 h postinfection at IC90 dose (5.6 μM ST-148, 0.66 μM niclosamide). How it is done:
as §1

The subject of data set [3] is dengue virus. The experiment in a line: Initial screening of hit compounds for anti-dengue activity in tissue culture cells (Table S1). The class given is cell-based. As to conditions: viral titer relative to vehicle, tissue culture cell lines (BHK-21 48 hpi, Fig. S1; Huh7, Fig. 2C, 3C, 4C). How it is done: For each query molecule, the top 500 compound hits obtained from the ROCS algorithm, as ranked by the Tanimoto combo score (see Data Set S1 in the supplemental material), were manually inspected for similar chemical and structural features. They were further prioritized by factors such as a lack of known side effects, commercial availability, and the intellectual property considerations that would be needed for worldwide, inexpensive use. Fourteen candidates were tested for their effects on dengue virus growth and toxicity in BHK-21 and Huh7 cells (see Table S1 and Fig. S1 in the supplemental material).
Supplementary file : TABLE S1 Summary of hits for lead compounds ARDP0006 and ST-148 screened for anti-dengue activity in tissue culture cells. Hit compounds were tested for anti-dengue activity and cell toxicity in tissue culture cell lines. Antiviral activity is summarized as follows: −, not antiviral, with titer greater than 50% of vehicle; +, weakly antiviral, with titer between 20 and 50% of vehicle; ++, moderately antiviral, with titer between 5 and 20% of vehicle; +++, highly antiviral, with titer less than 5% of vehicle. Toxicity at these doses is represented as follows: −, nontoxic, with cell viability greater than 80% of vehicle; +, mild toxicity, with cell viability between 60 and 80% of vehicle; +++, high toxicity, with cell viability less than 60% of vehicle. Data summarized here are depicted graphically in Fig. S1 and Fig. 2C, 3C, and [4]C. The Tanimoto combo score of each hit during initial ROCS screening is indicated; higher Tanimoto combo scores are indicative of increased chemical similarity. Download Table S1, PDF file, 0.04 MB.
Supplementary file : FIG S1 Initial screening of eliminated hit compounds for anti-dengue activity in tissue culture cells. BHK-21 cells were pretreated with the compounds at the indicated concentrations for 30 min, infected with dengue virus at an MOI of 0.1 PFU/cell for 1 h, and then posttreated with compound. At 48 hpi, cellular supernatant was collected and titered by plaque assay (purple). Cell viability in uninfected cells in the presence of compounds for 48 h was measured by WST assay (gray). Both viral titer and cell viability are normalized to their relative DMSO vehicle control, N = 2. Download FIG S1, PDF file, 0.06 MB.

The next data set concerns Zika virus. More on the design: method as in PMID 27571349. As to conditions: read-out: IC50, previously reported value for Zika virus; cited from earlier work.
For data set [4] the following is noted: single dose, ref PubChem database, cited from earlier work.

Consider `O=C1c2c(O)ccc([N+](=O)[O-])c2C(=O)c2c([N+](=O)[O-])ccc(O)c21` [ARDP0006], for which the IC50 in the data set with DENV2 (Dengue virus, DENV2, Huh-7, read-out: IC50 of viral inhibition (infectious extracellular virus)) was 0.59 µM; in the data set on dengue virus [1] it was 2.7 µM; at NS2B/3 proteinase, 620 µM.

`O=C(Nc1ccc([N+](=O)[O-])cc1Cl)c1cc(Cl)ccc1O` [Niclosamide, niclosamide]: the “Virion production at increased dose after entry” value in the data set with DENV2 (10 μM ST-148 or 1 μM niclosamide added after 4 h of infection, extracellular virus at 24 hpi) is listed as “effective during later, postentry stages; also recorded: inhibited virion production”. Also, the 90% effect level with DENV2 (Dengue virus, Huh-7, DENV2-infected Huh7 cells, from dose-response curve fit, 24 hpi) (IC90) was put at 0.66 µM. The IC50 in the data set with DENV2 (Dengue virus, Huh-7, DENV2-infected Huh7 cells, single infectious cycle, plaque assay at 24 hpi, read-out: IC50 of viral inhibition (infectious extracellular virus)) was 0.28 µM; with Zika virus it was 0.28 µM. The “Viral titer on delayed addition of compound” value in the data set on DENV2 (IC90 dose first added 4 h after infection, Huh7, 24 hpi) was “eliminated the observed reduction of viral titer”. Moreover, the “Virucidal effect of the combination with ST-148” value in the data set on dengue virus [2] (1 μM niclosamide added to 0.1 μM ST-148, 1 h at 37°C) was “significantly increased the virucidal effect of ST-148; also recorded: augment the virucidal activity of ST-148”. In addition, the “Virucidal activity (viral infectivity after coincubation)” value in the data set with dengue virus [2] (niclosamide alone at a much higher concentration, 1 h at 37°C) is recorded as “significantly, albeit slightly, virucidal”. In the data set on dengue viral RNA, the “Viral RNA abundance” value is “no difference in viral RNA abundance”. Further, the Antiviral entry in the data set with dengue virus [3] is reported as “+++ (highly antiviral, with titer less than 5% of vehicle)”. Also, the results for the 50% lethal dose (LD50) in data set [4] (IP) and in data set [4] (Oral) were 7.5 mg/kg and 1000 mg/kg, respectively.

Source of the values: publication PMC7667029, “A Targeted Computational Screen of the SWEETLEAD Database Reveals FDA-Approved Compounds with Anti-Dengue Viral Activity” (mBio, 2020).
